# Source: patent US20060069132A1, “Azolecarboxamide herbicides” (priority 2004, published 2006)
# Columns and labels:
# large crabgrass = assay: Test A pre-/postemergence herbicide test; assay type: in vivo, Digitaria sanguinalis
# Summary of the method: (§1)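 Pre: seeded sandy loam, directed soil spray, compound in non-phytotoxic solvent + surfactant. Post: 1–2-leaf plants (2–10 cm), sprayed to runoff. Greenhouse ~10 d; visual injury vs untreated, 0–100 scale.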
# woolly cupgrass = assay: Test C pre-/postemergence herbicide test; assay type: in vivo, Eriochloa villosa; conditions: preemergence
# Summary of the method: (§2)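 Visual injury scores run from 0 (no effect) to 100 (complete control), assessed relative to untreated controls 12 to 14 days after treatment in the greenhouse. Chemicals were formulated in a non-phytotoxic solvent mixture with surfactant and applied to soil after planting or to emerged plants at the 1- to 4-leaf stage.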
# morningglory = assay: Test C pre-/postemergence herbicide test; assay type: in vivo, Ipomoea coccinea; design: key to Plant response rating, Morningglory: 0 = no effect, 100 = complete control; conditions: preemergence
# Summary of the method: as §2
# soybean = assay: Test C pre-/postemergence herbicide test; assay type: in vivo, Glycine max; conditions: preemergence
# Summary of the method: as §2
# barnyardgrass = assay: Test C flooded paddy test; assay type: in vivo, Echinochloa crus-galli
# Summary of the method: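 Ratings (0 = no effect, 100 = complete control) come from visual comparison with untreated plants after 12 to 14 days in the greenhouse. Treatment was postemergence at the 1- to 4-leaf stage (2–18 cm), or at the 2-leaf stage for the flooded paddy barnyardgrass.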
# giant foxtail [1] = assay: Test C pre-/postemergence herbicide test; assay type: in vivo, Setaria faberi; conditions: preemergence
# Summary of the method: as §2
# giant foxtail [2] = assay: Test A pre-/postemergence herbicide test; assay type: in vivo, Setaria faberi
# Summary of the method: as §1
# yellow nutsedge = assay: Test C pre-/postemergence herbicide test; assay type: in vivo, Cyperus esculentus; conditions: preemergence
# Summary of the method: as §2
# velvetleaf = assay: Test A pre-/postemergence herbicide test; assay type: in vivo, Abutilon theophrasti
# Summary of the method: as §1
# ducksalad = assay: Test C flooded paddy test; assay type: in vivo, Heteranthera limosa
# [3] = Postemergence, 500 g ai/ha, 0 to 100 scale, 0 no effect, 100 complete control
# [4] = Postemergence, 2000 g ai/ha, 0 to 100 scale, 0 no effect, 100 complete control
# [5] = Preemergence, 500 g ai/ha, visual rating, 0 to 100 scale (0 no effect, 100 complete control)
# [6] = Preemergence, 2000 g ai/ha, 0 to 100 scale, 0 no effect, 100 complete control
# [7] = 125 g ai/ha, scale 0 (no effect) to 100 (complete control), visual, 12 to 14 days
# [8] = 250 g ai/ha, scale 0 to 100 (0 no effect, 100 complete control), visual, 12 to 14 days
# [9] = 62 g ai/ha, scale 0 to 100 (0 no effect, 100 complete control)
# [10] = 125 g ai/ha, scale of 0 to 100, 0 is no effect, 100 is complete control
# [11] = 250 g ai/ha, scale of 0 to 100, 0 is no effect, 100 is complete control
# [12] = 500 g ai/ha, visual rating after 12 to 14 days, scale 0 to 100 (0 no effect, 100 complete control)
structure (smiles),measurement,setting,value
CCOC(=O)c1cc(NC(=O)c2cc(C(C)(C)C)nn2CC)ccc1OCC [Compound 95],"Crabgrass, Large plant response rating",large crabgrass; [3],25
same,"Plant response rating, Crabgrass, Large",large crabgrass; [4],60
same,"Crabgrass, Large plant response rating",large crabgrass; [5],50
same,"Crabgrass, Large plant response rating",large crabgrass; [6],90
same,"Plant response rating, Cupgrass, Woolly","woolly cupgrass; 31 g ai/ha, scale 0 to 100",0
same,"Plant response rating (0 = no effect, 100 = complete control), Cupgrass, Woolly",woolly cupgrass; 62 g ai/ha,5
same,"Plant response rating, Cupgrass, Woolly",woolly cupgrass; [7],10
same,"Plant response rating, Cupgrass, Woolly",woolly cupgrass; [8],30
same,"Plant response rating, Morningglory","morningglory; 31 g ai/ha, scale 0 to 100",0
same,"Plant response rating (0 = no effect, 100 = complete control), Morningglory",morningglory; 62 g ai/ha,5
same,"Plant response rating, Morningglory",morningglory; [7],10
same,"Plant response rating, Soybean","soybean; 31 g ai/ha, scale 0 to 100",0
same,"Plant response rating (0 = no effect, 100 = complete control), Soybean",soybean; 62 g ai/ha,0
same,"Plant response rating, Soybean",soybean; [7],0
same,Barnyardgrass plant response rating,barnyardgrass; [9],20
same,Barnyardgrass plant response rating,barnyardgrass; [10],45
same,Barnyardgrass plant response rating,barnyardgrass; [11],55
same,"Plant response rating, Barnyardgrass",barnyardgrass; [12],60
same,"Plant response rating, Foxtail, Giant","giant foxtail [1]; 31 g ai/ha, scale 0 to 100",0
same,"Plant response rating (0 = no effect, 100 = complete control), Foxtail, Giant",giant foxtail [1]; 62 g ai/ha,60
same,"Plant response rating, Foxtail, Giant",giant foxtail [1]; [7],100
same,"Plant response rating, Foxtail, Giant",giant foxtail [1]; [8],100
same,"Foxtail, Giant plant response rating",giant foxtail [2]; [3],20
same,"Plant response rating, Foxtail, Giant",giant foxtail [2]; [4],50
same,"Foxtail, Giant plant response rating",giant foxtail [2]; [5],70
same,"Foxtail, Giant plant response rating",giant foxtail [2]; [6],90
same,"Plant response rating, Nutsedge, Yellow","yellow nutsedge; 31 g ai/ha, scale 0 to 100",0
same,"Plant response rating (0 = no effect, 100 = complete control), Nutsedge, Yellow",yellow nutsedge; 62 g ai/ha,0
same,"Plant response rating, Nutsedge, Yellow",yellow nutsedge; [7],0
same,Velvetleaf plant response rating,velvetleaf; [3],45
same,"Plant response rating, Velvetleaf",velvetleaf; [4],50
same,Velvetleaf plant response rating,velvetleaf; [5],50
same,Velvetleaf plant response rating,"velvetleaf; Preemergence, 2000 g ai/ha, visual rating, 0 to 100 scale (0 no effect, 100 complete control)",80
same,Ducksalad plant response rating,ducksalad; [9],10
same,Ducksalad plant response rating,ducksalad; [10],25
same,Ducksalad plant response rating,ducksalad; [11],75
same,"Plant response rating, Ducksalad",ducksalad; [12],90
